# From paper PMC8453745, “Human Mass Balance and Metabolite Profiling of [^14C]‐Pamiparib, a Poly (ADP‐Ribose) Polymerase Inhibitor, in Patients With Advanced Cancer” (Clinical Pharmacology in Drug Development, 2021)
# Legend:
# rat bone marrow = system: rat bone marrow; parameters: method as in data on file; details: in vivo rat bone marrow micronucleus assay; ref data on file; cited from earlier work
# CYP2C8 = target: T1, CYP2C8 (Homo sapiens, UniProt P10632); assay: CYP450 phenotyping in HLMs with CYP2C8 inhibitor montelukast; assay type: in vitro ADME; details: 90‐minute HLM incubation with CYP2C8 inhibitor montelukast (16 μM)
# T1 construct: tissue Corning (Woburn, New York); host or cells: pooled human liver microsomes
# T1 sequence (P10632 1-490): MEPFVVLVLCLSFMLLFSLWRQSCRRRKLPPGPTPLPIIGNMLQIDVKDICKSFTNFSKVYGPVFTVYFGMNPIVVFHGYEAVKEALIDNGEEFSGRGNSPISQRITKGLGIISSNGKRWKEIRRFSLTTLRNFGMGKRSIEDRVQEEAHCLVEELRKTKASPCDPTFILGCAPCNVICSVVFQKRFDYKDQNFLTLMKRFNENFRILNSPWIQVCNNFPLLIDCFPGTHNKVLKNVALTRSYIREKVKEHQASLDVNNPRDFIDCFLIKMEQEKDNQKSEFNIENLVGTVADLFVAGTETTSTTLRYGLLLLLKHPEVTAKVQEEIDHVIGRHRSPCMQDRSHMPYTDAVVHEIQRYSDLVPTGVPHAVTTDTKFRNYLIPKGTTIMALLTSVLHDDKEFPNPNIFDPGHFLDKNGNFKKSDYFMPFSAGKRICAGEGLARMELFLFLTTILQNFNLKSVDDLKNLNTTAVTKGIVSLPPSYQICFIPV
# Experimental: (§1) Metabolic stability in human liver microsomes (HLMs) and cytochrome P450 (CYP450) phenotyping assays were conducted in 3D BioOptima (Suzhou, China) using validated methodology, [13] to determine the intrinsic clearance and enzymes responsible for metabolism of pamiparib. HLMs for microsome stability was from BD Biosciences (Woburn, New York). For phenotyping, HLMs and recombinant P450 (rCYP) were from Corning (Woburn, New York). Pamiparib (1 μM) was incubated with pooled HLM (0.5 mg/mL), NADPH (1 mM), and MgCl2 (3 mM) terminated at 0, 5, 15, 30, 60, and 90 minutes. The intrinsic clearance was calculated as 0.693/(t1/2 × HLM concentration), where t1/2 is the half‐life of pamiparib determined in HLMs. For phenotyping in HLMs, pamiparib (1 μM) was incubated in the absence or presence of isoform‐selective inhibitors: 0.2 μM α‐naphthoflavone for CYP1A2, 2 μM clopidogrel for CYP2B6, 16 μM montelukast for CYP2C8, 10 μM sulfaphenazole for CYP2C9, 30 μM nootkatone for CYP2C19, 2 μM quinidine for CYP2D6, and 1 μM ketoconazole for CYP3A. The following isoform‐selective probe substrates served as positive controls: 40 μM phenacetin for CYP1A2, 100 μM bupropion for CYP2B6, 2 μM amodiaquine for CYP2C8, 5 μM diclofenac for CYP2C9, 40 μM S‐mephenytoin for CYP2C19, 5 μM dextromethorphan for CYP2D6, and 2 μM midazolam for CYP3A4. […] Pamiparib, M1, and M2 were analyzed by LC‐MS/MS.
# CYP2D6 = target: T2, CYP2D6 (Homo sapiens, UniProt P10635); assay: CYP450 phenotyping in HLMs with CYP2D6 inhibitor quinidine; assay type: in vitro ADME; details: HLM incubation
# T2 construct: tissue Corning (Woburn, New York); host or cells: pooled human liver microsomes
# T2 sequence (P10635 whole entry): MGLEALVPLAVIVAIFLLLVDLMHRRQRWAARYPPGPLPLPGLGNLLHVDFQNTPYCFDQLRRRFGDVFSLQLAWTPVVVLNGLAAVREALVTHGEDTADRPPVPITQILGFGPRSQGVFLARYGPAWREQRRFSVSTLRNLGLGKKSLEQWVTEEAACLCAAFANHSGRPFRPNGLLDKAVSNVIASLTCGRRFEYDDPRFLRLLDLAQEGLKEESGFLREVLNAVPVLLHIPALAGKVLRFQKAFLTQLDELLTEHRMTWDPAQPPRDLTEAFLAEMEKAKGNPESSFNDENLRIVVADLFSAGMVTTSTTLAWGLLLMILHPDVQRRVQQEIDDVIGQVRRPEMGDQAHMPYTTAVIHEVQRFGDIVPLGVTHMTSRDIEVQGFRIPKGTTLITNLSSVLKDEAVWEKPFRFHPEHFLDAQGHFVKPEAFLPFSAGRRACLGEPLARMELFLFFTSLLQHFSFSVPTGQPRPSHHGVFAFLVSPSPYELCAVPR
# Experimental: as §1
# [1] = parameters: method as in data on file; details: suspension in water, room temperature; ref data on file; cited from earlier work
# CYP3A = assay: CYP450 phenotyping in HLMs with CYP3A inhibitor ketoconazole; assay type: in vitro ADME, human; details: 90‐minute HLM incubation with CYP3A4 inhibitor ketoconazole (1 μM)
# Experimental: as §1
compound,measurement,setting,value
C[C@]12CCCN1CC1=NNC(=O)c3cc(F)cc4[nH]c2c1c34 [Pamiparib],clastogenic activity,rat bone marrow,clastogenic activity
same,pamiparib remaining,CYP2C8,82.9%
same,effect of CYP2D6 inhibitor quinidine on pamiparib metabolism,CYP2D6,minimal effect
same,chemical stability and radiopurity of the suspension established for,[1],48 h
same,pamiparib remaining,CYP3A,63.1%
